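Growth conditions: 96-well plates. Treatment: test compound, 48 hours, 5 concentrations. Analysis: linear interpolation between bracketing concentrations; unreached endpoints set to highest concentration. GI50 is the concentration that inhibits growth by half. TGI is the concentration that stops growth completely.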
Experiments:
Test in all cases: NCI tumour cell line growth inhibition, 48 h
[1] = system: HCT-116 colon
[2] = system: LOX IMVI melanoma
[3] = system: UO-31 renal
[4] = system: NCI-H460 lung
[5] = system: HCC-2998 colon
[6] = system: OVCAR-4 ovarian
[7] = system: SK-MEL-28 melanoma
[8] = system: ACHN renal
[9] = system: RPMI-8226 leukemia
[10] = system: SN12C renal
[11] = system: IGROV1 ovarian
[12] = system: SW-620 colon
[13] = system: SK-MEL-5 melanoma
[14] = system: OVCAR-5 ovarian
[15] = system: BT-549 breast
[16] = system: SF-268 CNS
[17] = system: A549 NSCLC
[18] = system: HS 578T breast
[19] = system: SF-539 CNS
[20] = system: DU-145 prostate
[21] = system: NCI-H522 lung
[22] = system: NCI-H23 lung
[23] = system: HT29 colon
[24] = system: SNB-75 CNS
[25] = system: HOP-92 NSCLC
[26] = system: T-47D breast
[27] = system: NCI-H226 lung

COc1ccc(CCN2CCCN3C2=Nc2ccccc2S3(=O)=O)cc1
TGI [1]: 16400 nM
GI50 [2]: 669 nM
TGI [2]: > 100000 nM
GI50 [3]: 913 nM
TGI [3]: > 100000 nM
GI50 [4]: 429 nM
TGI [4]: 44100 nM
GI50 [5]: 1450 nM
TGI [5]: > 100000 nM
GI50 [6]: 912 nM
TGI [6]: > 100000 nM
GI50 [7]: 805 nM
TGI [7]: > 100000 nM
GI50 [8]: 736 nM
TGI [8]: > 100000 nM
GI50 [9]: 563 nM
TGI [9]: 53500 nM
GI50 [10]: 707 nM
TGI [10]: > 100000 nM
GI50 [11]: 1510 nM
TGI [11]: > 100000 nM
GI50 [12]: 381 nM
TGI [12]: > 100000 nM
GI50 [13]: 357 nM
TGI [13]: 16400 nM
GI50 [14]: 20200 nM
TGI [14]: > 100000 nM
GI50 [15]: 923 nM
TGI [15]: 92400 nM
GI50 [16]: 2060 nM
TGI [16]: > 100000 nM
GI50 [17]: 800 nM
TGI [17]: > 100000 nM
GI50 [18]: 577 nM
TGI [18]: > 100000 nM
GI50 [19]: 272 nM
TGI [19]: 1040 nM
GI50 [20]: 496 nM
TGI [20]: > 100000 nM
GI50 [21]: 278 nM
TGI [21]: 8860 nM
GI50 [22]: 474 nM
TGI [22]: > 100000 nM
GI50 [23]: 323 nM
TGI [23]: 17500 nM
GI50 [24]: 296 nM
TGI [24]: > 100000 nM
GI50 [25]: 348 nM
TGI [25]: 13400 nM
GI50 [26]: 560 nM
TGI [26]: > 100000 nM
GI50 [27]: 8250 nM
TGI [27]: > 100000 nM

From PubChem BioAssay (NCI)
